Data reported in PubChem BioAssay AID330 (DTP/NCI, 2004).
Where “and” joins values, the source holds several entries; their conditions need not be identical. Equal entries are not always repeated. Toxic doses and inconclusive results are not listed.

Test system: P388 leukemia ip, CD2F1 mice, survival T/C
Assay: NCI In Vivo Anticancer Drug Screen. Data for tumor model P388 Leukemia (intraperitoneal) in CD2F1 (CDF1) mice
Conditions: endpoint: median survival time, higher = longer survival
In short: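 Mice carrying the transplanted tumor received test compound or vehicle. Survival was recorded in each group, and the value is the treated-group measurement divided by that of the vehicle-treated control group.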

[1] = dose: 50.0 mg/kg/injection, schedule: Q01DX009 (ip), vehicle: saline with Tween-80
[2] = dose: 100.0 mg/kg/injection, schedule: Q01DX009 (ip), vehicle: saline with Tween-80
[3] = dose: 200.0 mg/kg/injection, schedule: Q01DX009 (ip), vehicle: saline with Tween-80
[4] = dose: 60.0 mg/kg/injection, schedule: Q01DX005 (ip), vehicle: Klucel (hydroxypropylcellulose) (HPC)
[5] = dose: 120.0 mg/kg/injection, schedule: Q01DX005 (ip), vehicle: Klucel (hydroxypropylcellulose) (HPC)
[6] = dose: 240.0 mg/kg/injection, schedule: Q01DX005 (ip), vehicle: Klucel (hydroxypropylcellulose) (HPC)
[7] = dose: 60.0 mg/kg/injection, schedule: Q01DX005 (ip), vehicle: saline with Tween-80
[8] = dose: 120.0 mg/kg/injection, schedule: Q01DX005 (ip), vehicle: saline with Tween-80
[9] = dose: 240.0 mg/kg/injection, schedule: Q01DX005 (ip), vehicle: saline with Tween-80
[10] = dose: 50.0 mg/kg/injection, schedule: Q01DX005 (ip), vehicle: saline with Tween-80
[11] = dose: 100.0 mg/kg/injection, schedule: Q01DX005 (ip), vehicle: saline with Tween-80
[12] = dose: 200.0 mg/kg/injection, schedule: Q01DX005 (ip), vehicle: saline with Tween-80

In the case of `CC(=NCCN=C(C)c1ccccc1O)c1ccccc1O.[Cu]`, the T/C [1] was 105 % of control, the T/C [2] was 99 % of control and the T/C [3] was 89 % of control.
In the case of `CCOC(=O)c1ccc(NC(=O)Nc2ccc(Nc3ccccc3)cc2)cc1`, the T/C [4] was 95 % of control, the T/C [5] was 92 % of control and the T/C [6] was 88 % of control.
With `CCOC(=O)CCC(=O)Oc1ccc2c(c1OC(=O)CCC(=O)OCC)C(=O)c1ccccc1C2=O` the T/C [4] was 97 % of control, the T/C [5] was 97 % of control and the T/C [6] was 95 % of control.
In the case of `Nc1ccc2c(c1)Oc1ccc(N)cc1O2`, the T/C [7] was 102 % of control, the T/C [8] was 100 % of control and the T/C [9] was 106 % of control.
In the case of `CC1CCC2(C(=O)O)CCC3(C)C(=CCC4C5(C)CC(O)C(O)C(C)(C(=O)O)C5CCC43C)C2C1(C)O` (centres undefined), the T/C (dose: 33.0 mg/kg/injection, schedule: Q01DX001 (ip), vehicle: saline with Tween-80) was 100 % of control, the T/C (dose: 50.0 mg/kg/injection, schedule: Q01DX001 (ip), vehicle: saline with Tween-80) was 100 % of control and the T/C (dose: 75.0 mg/kg/injection, schedule: Q01DX001 (ip), vehicle: saline with Tween-80) was 90 % of control.
In the case of `COc1cc2ccc3c4c(OC)c(OC)c(OC)cc4c[n+](C)c3c2cc1OC`, the T/C (dose: 2.0 mg/kg/injection, schedule: Q01DX009 (ip), vehicle: water) was 111 % of control, the T/C (dose: 4.0 mg/kg/injection, schedule: Q01DX009 (ip), vehicle: water) was 113 % of control and the T/C (dose: 8.0 mg/kg/injection, schedule: Q01DX009 (ip), vehicle: water) was 110 % of control. For the same compound, the T/C (dose: 16.0 mg/kg/injection, schedule: Q01DX009 (ip), vehicle: water) was 118 % of control.
For `CSC(=S)n1nc(C)c(N=Nc2cccc(Cl)c2Cl)c1C`, the T/C [10] was 88 % of control, the T/C [11] was 88 % of control and the T/C [12] was 89 % of control.
With `COc1ccc2nc(NC(=O)Nc3ccc(C)c(NC(=O)Nc4nc5ccc(OC)cc5s4)c3)sc2c1` the T/C (dose: 50.0 mg/kg/injection, schedule: Q01DX009 (ip), vehicle: Klucel (hydroxypropylcellulose) (HPC)) was 92 % of control and the T/C (dose: 100.0 mg/kg/injection, schedule: Q01DX009 (ip), vehicle: Klucel (hydroxypropylcellulose) (HPC)) was 89 % of control.
For `CCCCCCC1(/C=C/c2ccc(Cl)c(Cl)c2)OCCCO1`, the T/C (dose: 50.0 mg/kg/injection, schedule: Q01DX009 (ip), vehicle: saline + alcohol) was 98 % of control, the T/C (dose: 100.0 mg/kg/injection, schedule: Q01DX009 (ip), vehicle: saline + alcohol) was 93 % of control and the T/C (dose: 200.0 mg/kg/injection, schedule: Q01DX009 (ip), vehicle: saline + alcohol) was 98 % of control.
For `Nc1c(-c2ncc[nH]2)[nH]c2cc(-c3ncc[nH]3)ccc12`, the T/C (dose: 15.0 mg/kg/injection, schedule: Q01DX005 (ip), vehicle: Klucel (hydroxypropylcellulose) (HPC)) was 97 % of control, the T/C (dose: 30.0 mg/kg/injection, schedule: Q01DX005 (ip), vehicle: Klucel (hydroxypropylcellulose) (HPC)) was 100 % of control and the T/C [4] was 99 % of control and 101 % of control.
In the case of `O=C(N/N=C/c1cc(Cl)cc(Cl)c1[O-])c1ccccc1.O=C(N/N=C/c1cc(Cl)cc(Cl)c1[O-])c1ccccc1.[Fe+2]`, the T/C (dose: 100.0 mg/kg/injection, schedule: Q04DX002 (ip), vehicle: saline with Tween-80) was 98 % of control, the T/C (dose: 200.0 mg/kg/injection, schedule: Q04DX002 (ip), vehicle: saline with Tween-80) was 103 % of control and the T/C (dose: 400.0 mg/kg/injection, schedule: Q04DX002 (ip), vehicle: saline with Tween-80) was 100 % of control.
With `O=[N+]([O-])c1ccc(S(=O)C2CCCCC2Cl)c([N+](=O)[O-])c1` (centres undefined) the T/C (dose: 100.0 mg/kg/injection, schedule: Q04DX002 (ip), vehicle: Klucel (hydroxypropylcellulose) (HPC)) was 110 % of control and the T/C (dose: 200.0 mg/kg/injection, schedule: Q04DX002 (ip), vehicle: Klucel (hydroxypropylcellulose) (HPC)) was 113 % of control.
For `CN1CCC(c2ccccc2)(c2ccccc2)C(=O)C1`, the T/C [1] was 100 % of control and 104 % of control, the T/C [2] was 109 % of control and 111 % of control and 114 % of control and the T/C [3] was 118 % of control and 123 % of control.
For `CCOC(=O)C1(Br)CCCCC1Br` (centres undefined), the T/C (dose: 25.0 mg/kg/injection, schedule: Q01DX009 (ip), vehicle: saline with Tween-80) was 108 % of control and 111 % of control, the T/C [1] was 115 % of control and 118 % of control and the T/C [2] was 113 % of control and 118 % of control and 119 % of control.
`CCCCCCCOC(=O)c1cc2cc(C(CC)C(CC)c3ccc(O)cc3)ccc2oc1=O` (centres undefined) was tested, and the T/C [7] was 105 % of control, the T/C [8] was 92 % of control and the T/C [9] was 95 % of control.
For `N#CCCN(N)S(=O)(=O)c1ccccc1`, the T/C (dose: 50.0 mg/kg/injection, schedule: Q01DX005 (ip), vehicle: Klucel (hydroxypropylcellulose) (HPC)) was 99 % of control, the T/C (dose: 100.0 mg/kg/injection, schedule: Q01DX005 (ip), vehicle: Klucel (hydroxypropylcellulose) (HPC)) was 99 % of control and the T/C (dose: 200.0 mg/kg/injection, schedule: Q01DX005 (ip), vehicle: Klucel (hydroxypropylcellulose) (HPC)) was 98 % of control.
In the case of `Cc1ccc(NC(=S)SCc2ccc(Cl)c(Cl)c2)cc1Br`, the T/C (dose: 50.0 mg/kg/injection, schedule: Q01DX009 (ip), vehicle: saline) was 113 % of control, the T/C (dose: 100.0 mg/kg/injection, schedule: Q01DX009 (ip), vehicle: saline) was 100 % of control and the T/C (dose: 200.0 mg/kg/injection, schedule: Q01DX009 (ip), vehicle: saline) was 90 % of control. For the same compound, the T/C (dose: 200.0 mg/kg/injection, schedule: Q01DX009 (ip), vehicle: suspension in saline) was 95 % of control.
In the case of `CCC/C(C)=N/NC(=S)SC`, the T/C (dose: 6.25 mg/kg/injection, schedule: Q01DX009 (ip), vehicle: saline) was 100 % of control, the T/C (dose: 12.5 mg/kg/injection, schedule: Q01DX009 (ip), vehicle: saline) was 98 % of control and the T/C (dose: 25.0 mg/kg/injection, schedule: Q01DX009 (ip), vehicle: saline) was 98 % of control.
`O=[N+]1C=CC=CC1=C1C=CC=CN1[O-]` was tested, and the T/C [10] was 104 % of control, the T/C [11] was 110 % of control and the T/C [12] was 103 % of control.
`O=c1[nH]c(=O)n(C2CC(O)C(CO)O2)cc1C(F)(F)F` (centres undefined) was tested, and the T/C (dose: 20.0 mg/kg/injection, schedule: Q01DX009 (ip), vehicle: saline with Tween-80) was 111 % of control, the T/C (dose: 31.25 mg/kg/injection, schedule: Q01DX009 (ip), vehicle: Klucel (hydroxypropylcellulose) (HPC)) was 120 % of control and the T/C (dose: 40.0 mg/kg/injection, schedule: Q01DX009 (ip), vehicle: saline with Tween-80) was 117 % of control. The T/C (dose: 62.5 mg/kg/injection, schedule: Q01DX009 (ip), vehicle: Klucel (hydroxypropylcellulose) (HPC)) was 151 % of control, the T/C (dose: 80.0 mg/kg/injection, schedule: Q01DX009 (ip), vehicle: saline with Tween-80) was 119 % of control and the T/C (dose: 125.0 mg/kg/injection, schedule: Q01DX005 (ip), vehicle: Klucel (hydroxypropylcellulose) (HPC)) was 152 % of control. For the same compound, the T/C (dose: 125.0 mg/kg/injection, schedule: Q01DX009 (ip), vehicle: Klucel (hydroxypropylcellulose) (HPC)) was 178 % of control and 183 % of control, the T/C (dose: 160.0 mg/kg/injection, schedule: Q01DX009 (ip), vehicle: saline with Tween-80) was 111 % of control and the T/C (dose: 250.0 mg/kg/injection, schedule: Q01DX005 (ip), vehicle: Klucel (hydroxypropylcellulose) (HPC)) was 161 % of control. For the same compound, the T/C (dose: 250.0 mg/kg/injection, schedule: Q01DX009 (ip), vehicle: Klucel (hydroxypropylcellulose) (HPC)) was 176 % of control, the T/C (dose: 320.0 mg/kg/injection, schedule: Q01DX009 (ip), vehicle: saline with Tween-80) was 102 % of control and the T/C (dose: 500.0 mg/kg/injection, schedule: Q01DX005 (ip), vehicle: Klucel (hydroxypropylcellulose) (HPC)) was 151 % of control. The T/C (dose: 500.0 mg/kg/injection, schedule: Q01DX009 (ip), vehicle: Klucel (hydroxypropylcellulose) (HPC)) was 100 % of control and 104 % of control and the T/C (dose: 640.0 mg/kg/injection, schedule: Q01DX009 (ip), vehicle: saline with Tween-80) was 88 % of control.
In the case of `COc1cc2cc[n+](C)c(C)c2cc1OC`, the T/C (dose: 12.5 mg/kg/injection, schedule: Q01DX009 (ip), vehicle: distilled water + Tween-80) was 111 % of control, the T/C (dose: 25.0 mg/kg/injection, schedule: Q01DX009 (ip), vehicle: distilled water + Tween-80) was 111 % of control and 120 % of control and the T/C (dose: 50.0 mg/kg/injection, schedule: Q01DX009 (ip), vehicle: distilled water + Tween-80) was 121 % of control and 124 % of control. The T/C (dose: 100.0 mg/kg/injection, schedule: Q01DX009 (ip), vehicle: distilled water + Tween-80) was 100 % of control and 118 % of control.
With `Cc1cc2nc3ccc(N(C)C)cc3nc2cc1N` the T/C (dose: 12.5 mg/kg/injection, schedule: Q01DX005 (ip), vehicle: saline) was 96 % of control, the T/C (dose: 25.0 mg/kg/injection, schedule: Q01DX005 (ip), vehicle: saline) was 100 % of control and the T/C [10] was 95 % of control. The T/C (dose: 50.0 mg/kg/injection, schedule: Q01DX005 (ip), vehicle: saline) was 112 % of control.
